Experimental data: patent US20060034823A1, “Method of production and use of crotoxin as an analgesic” (priority 2004, published 2006)
Several values for one entry are separate records, joined by “and”; a condition that tells them apart may be missing. Identical values can stand only once. Counter-ions that a name gives are not always drawn. Like-named read-outs stand apart in the source and are kept apart here.

What was measured:
[1] = tested on: pain response in mice induced by Hot Plate; assay type: in vivo, Kunming mice; settings: for Pain threshold, After drug administration: crotoxin 44.3 μg·kg−1; for Pain threshold, Baseline: before drugs; for Time lapse before pain response: Dolantin 40000 μg/kg ip; for Pain thresholds: Acetylsalicylic acid 400 mg·kg−1
[2] = in vivo; cited from earlier work
animal models of pain = test: Crotamine in animal models of pain; assay type: in vivo; settings: applicant's own studies vs published observations
Excerpt: The analgesic effect of snake venom proteins has been known since antiquity and several authors have pointed out the efficiency of the administration of crude cobra or rattlesnake venoms in the treatment of trigeminal neuralgias, tabetic and pain caused by tumors. In the cases of tumoral pains, the patients could be maintained without the administration of morphine in 70% of the cases. Obviously, at the time, crude venoms were employed without even an adequate knowledge of the source or mechanism. Sometimes venoms from cobras captured in India or South Africa were employed indistinctly (see, Haast, U.S. Pat. No. 4,341,762). […] With respect to crotamine, it was assumed that this represented the anti-nociceptive component of Crotalus durissus terrificus venom.

[3] = tested on: acetic acid writhing response in mice; test: animal or person; assay type: in vivo, Kunming mice
Method: In the hot-plate test, a animal is positioned on a hot plate and is exposed to a standard heat source, and the time that the animal voluntarily endures the heat, prior to licking its paws, is recorded. In the acid-writhing test, the animal is injected into the intraperitoneal cavity and results in a writhing response. For the tail-flick test the animal's tail is subjected to heat or electrical stimulus and the time taken for the animal to remove its tail away from the noxious stimulus is recorded. Analgesics, particularly opioid analgesics, will prolong these times relative to controls.
The mice were randomly divided into 5 groups (n=10 in each group): saline control, acetylsalicylic acid 400 mg/kg^−1, crotoxin 66.5, 44.3, or 29.5 mcg.kg^−1 −1. Pain threshold was measured 3 h after drug administration.
The mice were randomly divided into 2 groups (n=10 in each group): saline control and crotoxin 0.3 mcg.kg^−1 −1. The effects of crotoxin on pain threshold were measured 1 hour after crotoxin or saline administration.
The mice were randomly divided into 4 groups (n=10 in each group): saline control, crotoxin 44.3 mcg.kg^−1 −1, acetylsalicylic acid (Ace) 300 mg/kg^−1, and crotoxin+acetylsalicylic acid. Acetylsalicylic acid 300 mg/kg^−1 (im) and crotoxin 44.3 mcg.kg^−1 −1 (im) were administrated at the same time. Pain threshold was determined 2 h after crotoxin administration.

Compound: C=CCN1CC[C@]23c4c5ccc(O)c4O[C@H]2C(=O)CC[C@@]3(O)[C@H]1C5 [Naloxone, Naloxone hydrochloride]
- Pain threshold, After drug administration ([1]; naloxone 3 mg·kg−1 or NS (i.p.) 2.5 hours after crotoxin, determined 30 minutes after naloxone): 19.04 ± 4.88 s
- effect of naloxone alone on the pain threshold ([1]; naloxone 3 mg/kg (ip)): no significant influence
- effect on the analgesia induced by crotoxin ([1]; naloxone (ip)): had no effect
- Pain threshold, Baseline ([1]; naloxone study): 16.97 ± 3.64 s

Compound: CCOC(=O)C1(c2ccccc2)CCN(C)CC1 [Dolantin, Meperidine hydrochloride]
- Time lapse before pain response ([1]; 30 min after drug, hydrochloride): 56 s and 56.14 s
- Time lapse before pain response ([1]; 60 min after drug): 55.49 s
- Time lapse before pain response ([1]; 90 min after drug, hydrochloride): 36 s and 36.36 s
- Time lapse before pain response ([1]; 120 min after drug, hydrochloride): 34 s and 34.03 s
- Time lapse before pain response ([1]; Pre-drug, hydrochloride): 13.2 s and 13.20 s
- analgesic potency relative to morphine [2]: one-tenth as potent an analgesic as morphine
- duration [2]: 2 to 4 h
- onset of activity [2]: 10 to 45 min

Compound: CN1[C@@H]2CC[C@H]1C[C@@H](OC(=O)C(CO)c1ccccc1)C2 (stereo partly shown) [Atropine, atropine]
- effect of atropine alone on the pain threshold ([1]; atropine 0.5 mg/kg (im)): no significant effect
- Pain threshold, Baseline ([1]; atropine study): 16.87 ± 3.10 s
- Pain threshold, After drug administration ([1]; atropine 0.5 mg·kg−1 or NS (im) 1.5 h after crotoxin, determined 1.5 h after atropine): 18.46 ± 3.25 s

Compound: crotamine (YKQCHKKGGHCFPKEKICLPPSSDFGKMDCRWRWKCCKKGSG; UniProt Q9PWF3 23-64, looked up)
- antinociceptive properties (animal models of pain): failed to confirm these published observations

Compound: CC(=O)Oc1ccccc1C(=O)O [Acetylsalicylic acid, acetylsalicylic acid]
- Pain thresholds ([1]; 1 h after administration): 28.12 ± 6.95 s
- Pain thresholds ([1]; 2 h after administration): 24.50 ± 14.14 s
- Pain thresholds ([1]; 3 h after administration): 26.22 ± 14.32 s
- Pain thresholds ([1]; Baseline): 17.36 ± 2.72 s
- The number of writhings after administration ([3]; Acetylsalicylic acid 400 mg·kg−1, 3 h after drug administration): 8.80 ± 6.36 times/10 min
- inhibition at 400 mg/kg ([3]; Mus musculus, 3 h, read-out: Percentage inhibition compared with control group): 70.1%
- effect on the analgesic effects of crotoxin ([3]; acetylsalicylic acid 300 mg/kg (ip)): significantly enhanced
- analgesic effect, acetylsalicylic acid study ([3]; acetylsalicylic acid 300 mg/kg, crotoxin 44.3 mcg/kg, given at the same time): significant analgesic effects
- The number of writhings ([3]; crotoxin 44.3 μg·kg−1 and acetylsalicylic acid (table: 0.3 mg·kg−1; text: 300 mg/kg) given at the same time, 2 h after crotoxin): 12.13 ± 9.04 times/10 min
